{"source": "patent US20100137449A1", "about": "“SUBSTITUTED 1,3-CYCLOPENTADIONE MULTI-TARGET PROTEIN KINASE MODULATORS OF CANCER, ANGIOGENESIS AND THE INFLAMMATORY PATHWAYS ASSOCIATED THEREWITH” (METAPROTEOMICS, LLC, priority 2007, published 2010)", "experiment_in_all_cases": "KinaseProfiler Assay", "key": {"Fer(h)": {"molecular_target": "Fer(h) (Homo sapiens, UniProt P16591)", "sequence (P16591 whole entry)": "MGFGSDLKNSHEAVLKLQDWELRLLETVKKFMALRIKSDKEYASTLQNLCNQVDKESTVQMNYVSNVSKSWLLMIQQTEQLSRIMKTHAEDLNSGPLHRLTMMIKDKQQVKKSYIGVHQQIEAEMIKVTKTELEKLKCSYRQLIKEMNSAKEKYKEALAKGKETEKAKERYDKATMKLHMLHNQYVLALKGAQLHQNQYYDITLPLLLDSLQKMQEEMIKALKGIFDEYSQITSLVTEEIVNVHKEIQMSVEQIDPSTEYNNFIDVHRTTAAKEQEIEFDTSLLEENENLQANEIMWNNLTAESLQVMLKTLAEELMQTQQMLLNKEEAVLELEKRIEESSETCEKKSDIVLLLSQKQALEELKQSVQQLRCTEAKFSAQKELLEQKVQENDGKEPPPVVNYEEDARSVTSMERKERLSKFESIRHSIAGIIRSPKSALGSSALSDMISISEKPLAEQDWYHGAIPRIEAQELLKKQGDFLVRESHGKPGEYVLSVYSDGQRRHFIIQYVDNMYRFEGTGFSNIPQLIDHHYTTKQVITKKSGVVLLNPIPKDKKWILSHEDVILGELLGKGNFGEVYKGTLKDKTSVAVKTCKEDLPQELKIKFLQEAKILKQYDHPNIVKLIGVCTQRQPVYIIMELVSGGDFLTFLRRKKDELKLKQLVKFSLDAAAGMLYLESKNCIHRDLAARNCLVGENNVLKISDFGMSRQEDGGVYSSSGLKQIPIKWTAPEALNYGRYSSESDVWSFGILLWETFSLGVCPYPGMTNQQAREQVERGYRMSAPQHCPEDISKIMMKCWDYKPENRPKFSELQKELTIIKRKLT"}, "Pim-1(h)": {"molecular_target": "Pim-1(h) (Homo sapiens, UniProt P11309)", "sequence (P11309 whole entry)": "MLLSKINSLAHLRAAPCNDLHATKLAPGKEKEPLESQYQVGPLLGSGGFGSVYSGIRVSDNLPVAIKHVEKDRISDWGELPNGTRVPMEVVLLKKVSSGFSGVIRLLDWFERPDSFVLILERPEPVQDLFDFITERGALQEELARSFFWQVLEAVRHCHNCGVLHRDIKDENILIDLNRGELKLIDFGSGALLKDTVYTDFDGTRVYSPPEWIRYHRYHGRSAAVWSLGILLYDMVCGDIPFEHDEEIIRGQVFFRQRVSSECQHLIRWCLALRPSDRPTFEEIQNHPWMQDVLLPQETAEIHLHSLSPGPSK"}, "EphB1(h)": {"molecular_target": "T1, EphB1(h) (Homo sapiens, UniProt P54762)", "T1 sequence (P54762 18-984)": "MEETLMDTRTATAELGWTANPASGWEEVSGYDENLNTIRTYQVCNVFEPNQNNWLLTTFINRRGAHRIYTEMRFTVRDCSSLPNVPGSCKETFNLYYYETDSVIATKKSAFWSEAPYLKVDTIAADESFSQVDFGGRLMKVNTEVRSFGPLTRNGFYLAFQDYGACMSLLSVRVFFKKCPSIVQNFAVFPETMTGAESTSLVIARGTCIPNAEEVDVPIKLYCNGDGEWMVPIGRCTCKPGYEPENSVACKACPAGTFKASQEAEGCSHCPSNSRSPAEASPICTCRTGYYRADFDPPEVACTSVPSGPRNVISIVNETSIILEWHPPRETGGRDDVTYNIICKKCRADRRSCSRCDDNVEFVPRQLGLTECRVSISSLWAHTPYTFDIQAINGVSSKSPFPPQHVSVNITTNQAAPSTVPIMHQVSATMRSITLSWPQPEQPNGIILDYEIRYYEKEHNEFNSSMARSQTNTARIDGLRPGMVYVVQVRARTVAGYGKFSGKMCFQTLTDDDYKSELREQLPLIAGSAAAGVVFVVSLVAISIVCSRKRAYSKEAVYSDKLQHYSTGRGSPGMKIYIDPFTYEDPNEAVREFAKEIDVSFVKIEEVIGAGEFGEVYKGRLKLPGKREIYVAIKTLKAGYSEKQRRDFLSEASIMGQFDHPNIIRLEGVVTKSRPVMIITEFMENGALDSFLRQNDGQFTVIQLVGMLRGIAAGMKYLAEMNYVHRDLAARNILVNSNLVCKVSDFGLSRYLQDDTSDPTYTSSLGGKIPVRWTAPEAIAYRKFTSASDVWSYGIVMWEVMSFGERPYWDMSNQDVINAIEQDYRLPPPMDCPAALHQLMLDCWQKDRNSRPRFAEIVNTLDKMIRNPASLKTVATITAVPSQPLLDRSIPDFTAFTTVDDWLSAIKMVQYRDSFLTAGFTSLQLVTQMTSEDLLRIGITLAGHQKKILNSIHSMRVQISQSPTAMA"}, "Abl(M351T)(h)": {"molecular_target": "Abl(M351T)(h) (Homo sapiens, UniProt P00519, M351T)"}, "cKit(h)": {"molecular_target": "cKit(h) (Homo sapiens, UniProt P10721)", "sequence (P10721 26-976)": "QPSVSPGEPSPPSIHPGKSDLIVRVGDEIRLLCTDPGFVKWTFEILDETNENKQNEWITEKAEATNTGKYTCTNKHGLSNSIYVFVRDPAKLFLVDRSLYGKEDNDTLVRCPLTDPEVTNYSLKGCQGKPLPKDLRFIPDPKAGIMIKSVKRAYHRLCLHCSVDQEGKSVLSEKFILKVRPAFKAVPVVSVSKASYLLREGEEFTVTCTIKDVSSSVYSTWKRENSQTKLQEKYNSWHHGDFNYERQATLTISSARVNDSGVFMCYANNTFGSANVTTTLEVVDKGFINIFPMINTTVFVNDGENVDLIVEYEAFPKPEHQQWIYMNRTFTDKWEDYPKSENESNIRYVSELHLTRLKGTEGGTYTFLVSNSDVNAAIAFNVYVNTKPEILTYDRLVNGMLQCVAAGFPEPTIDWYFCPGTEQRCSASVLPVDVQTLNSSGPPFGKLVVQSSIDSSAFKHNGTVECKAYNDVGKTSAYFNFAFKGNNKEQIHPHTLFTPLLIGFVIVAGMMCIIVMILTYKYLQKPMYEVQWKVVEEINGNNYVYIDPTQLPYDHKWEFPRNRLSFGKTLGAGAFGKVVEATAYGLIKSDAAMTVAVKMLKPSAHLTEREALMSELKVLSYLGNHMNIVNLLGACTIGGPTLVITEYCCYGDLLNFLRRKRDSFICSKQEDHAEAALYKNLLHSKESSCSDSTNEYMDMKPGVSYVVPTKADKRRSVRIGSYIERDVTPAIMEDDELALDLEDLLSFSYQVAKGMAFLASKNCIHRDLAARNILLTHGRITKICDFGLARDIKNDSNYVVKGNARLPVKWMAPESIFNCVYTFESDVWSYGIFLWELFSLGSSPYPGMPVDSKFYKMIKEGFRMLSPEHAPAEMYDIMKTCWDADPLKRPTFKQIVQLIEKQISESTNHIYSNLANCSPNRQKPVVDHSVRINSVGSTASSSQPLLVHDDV"}, "PRAK(h)": {"molecular_target": "T2, PRAK(h) (Homo sapiens, UniProt Q8IW41)", "T2 sequence (Q8IW41 1-473)": "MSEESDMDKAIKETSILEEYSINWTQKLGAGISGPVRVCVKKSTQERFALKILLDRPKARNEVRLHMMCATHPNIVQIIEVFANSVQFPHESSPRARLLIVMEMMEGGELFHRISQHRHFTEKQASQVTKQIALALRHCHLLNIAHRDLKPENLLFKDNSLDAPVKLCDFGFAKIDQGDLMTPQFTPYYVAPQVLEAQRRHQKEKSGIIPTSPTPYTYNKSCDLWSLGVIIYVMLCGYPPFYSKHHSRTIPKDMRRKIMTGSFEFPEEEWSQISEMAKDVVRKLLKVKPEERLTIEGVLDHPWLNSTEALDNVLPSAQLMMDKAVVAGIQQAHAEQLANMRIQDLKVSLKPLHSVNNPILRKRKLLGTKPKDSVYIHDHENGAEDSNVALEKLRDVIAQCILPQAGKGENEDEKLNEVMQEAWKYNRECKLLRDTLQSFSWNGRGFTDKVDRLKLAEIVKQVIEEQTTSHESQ"}, "Ret(V804M)(h)": {"molecular_target": "Ret(V804M)(h) (Homo sapiens, UniProt P07949, V804M)", "sequence (P07949 29-1114 V804M)": "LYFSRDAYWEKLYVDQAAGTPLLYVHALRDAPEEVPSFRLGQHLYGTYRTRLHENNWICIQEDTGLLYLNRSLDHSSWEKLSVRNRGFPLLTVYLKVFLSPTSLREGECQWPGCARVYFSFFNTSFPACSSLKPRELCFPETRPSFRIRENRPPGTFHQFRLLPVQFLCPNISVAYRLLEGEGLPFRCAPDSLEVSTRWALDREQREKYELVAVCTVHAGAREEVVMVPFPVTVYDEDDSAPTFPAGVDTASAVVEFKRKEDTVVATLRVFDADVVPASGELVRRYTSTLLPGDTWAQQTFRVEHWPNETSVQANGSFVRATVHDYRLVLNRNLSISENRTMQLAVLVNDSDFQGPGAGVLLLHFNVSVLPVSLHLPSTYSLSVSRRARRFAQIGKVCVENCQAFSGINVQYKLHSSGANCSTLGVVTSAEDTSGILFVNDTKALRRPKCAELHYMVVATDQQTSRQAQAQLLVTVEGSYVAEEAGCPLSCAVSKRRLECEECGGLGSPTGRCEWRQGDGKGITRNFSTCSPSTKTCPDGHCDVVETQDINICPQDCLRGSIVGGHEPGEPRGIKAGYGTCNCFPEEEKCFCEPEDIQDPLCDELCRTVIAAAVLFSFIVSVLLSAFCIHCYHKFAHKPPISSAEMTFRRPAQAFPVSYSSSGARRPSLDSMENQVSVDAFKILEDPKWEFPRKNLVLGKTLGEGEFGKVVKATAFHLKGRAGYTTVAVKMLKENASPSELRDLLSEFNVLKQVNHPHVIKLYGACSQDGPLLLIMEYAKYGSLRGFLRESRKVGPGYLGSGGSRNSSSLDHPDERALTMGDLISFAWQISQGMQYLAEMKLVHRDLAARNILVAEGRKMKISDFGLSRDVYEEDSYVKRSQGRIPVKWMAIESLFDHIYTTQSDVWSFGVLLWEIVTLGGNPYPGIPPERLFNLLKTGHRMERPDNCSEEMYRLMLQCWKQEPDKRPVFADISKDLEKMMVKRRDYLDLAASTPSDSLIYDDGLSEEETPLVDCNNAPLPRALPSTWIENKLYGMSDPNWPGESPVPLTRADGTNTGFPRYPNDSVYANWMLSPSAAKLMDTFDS"}, "TLK2(h)": {"molecular_target": "TLK2(h) (Homo sapiens, UniProt Q86UE8)", "sequence (Q86UE8 whole entry)": "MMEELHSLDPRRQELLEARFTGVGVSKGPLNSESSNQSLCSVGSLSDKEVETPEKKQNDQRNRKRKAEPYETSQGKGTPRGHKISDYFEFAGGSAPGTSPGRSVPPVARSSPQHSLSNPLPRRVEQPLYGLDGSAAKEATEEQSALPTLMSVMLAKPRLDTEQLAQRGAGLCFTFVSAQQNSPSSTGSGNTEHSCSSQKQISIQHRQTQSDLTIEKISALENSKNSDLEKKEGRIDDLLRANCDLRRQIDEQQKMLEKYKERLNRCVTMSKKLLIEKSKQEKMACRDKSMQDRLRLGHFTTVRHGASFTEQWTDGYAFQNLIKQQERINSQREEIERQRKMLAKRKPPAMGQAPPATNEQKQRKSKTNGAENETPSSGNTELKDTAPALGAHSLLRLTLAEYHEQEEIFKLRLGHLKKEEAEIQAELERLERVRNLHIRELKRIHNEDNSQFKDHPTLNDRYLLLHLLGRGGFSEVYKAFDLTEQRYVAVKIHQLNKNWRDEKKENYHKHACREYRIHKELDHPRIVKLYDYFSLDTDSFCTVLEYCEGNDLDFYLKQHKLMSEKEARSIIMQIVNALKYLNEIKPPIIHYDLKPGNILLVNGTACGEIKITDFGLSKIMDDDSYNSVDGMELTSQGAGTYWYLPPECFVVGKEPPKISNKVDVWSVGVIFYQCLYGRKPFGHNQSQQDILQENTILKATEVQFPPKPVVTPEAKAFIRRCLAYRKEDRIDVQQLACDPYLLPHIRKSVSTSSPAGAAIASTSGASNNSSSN"}, "MAPKAP-K3(h)": {"molecular_target": "MAPKAP-K3(h) (Homo sapiens, UniProt Q16644)", "sequence (Q16644 whole entry)": "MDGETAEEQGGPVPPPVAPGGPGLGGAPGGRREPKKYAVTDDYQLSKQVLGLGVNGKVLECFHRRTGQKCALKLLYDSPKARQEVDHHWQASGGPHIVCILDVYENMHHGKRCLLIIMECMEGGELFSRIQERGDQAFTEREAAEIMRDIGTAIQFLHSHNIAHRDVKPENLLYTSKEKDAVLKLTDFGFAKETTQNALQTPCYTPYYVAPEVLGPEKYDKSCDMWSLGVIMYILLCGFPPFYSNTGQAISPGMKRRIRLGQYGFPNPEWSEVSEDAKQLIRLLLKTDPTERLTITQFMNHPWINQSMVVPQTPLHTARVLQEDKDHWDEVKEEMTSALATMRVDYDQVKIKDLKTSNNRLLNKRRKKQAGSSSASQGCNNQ"}}}
{"smiles": "CC(C)CCC(=O)[C@]1(O)C(O)=C(C(=O)C(C)C)C(=O)[C@H]1CCC(C)C", "note": "[TH2, tetrahydroiso-cohumulone]", "values": [{"measurement": "kinase inhibition", "setting": "Fer(h); 1 μg/ml", "result": "110% of control"}, {"measurement": "kinase inhibition", "setting": "Fer(h); 5 μg/ml", "result": "102% of control"}, {"measurement": "kinase inhibition", "setting": "Fer(h); 25 μg/ml", "result": "104% of control"}, {"measurement": "kinase inhibition", "setting": "Fer(h); 50 μg/ml", "result": "91% of control"}, {"measurement": "kinase inhibition", "setting": "Fer(h); 100 μg/ml", "result": "88% of control"}, {"measurement": "kinase inhibition", "setting": "Pim-1(h); 1 μg/ml", "result": "86% of control"}, {"measurement": "kinase inhibition", "setting": "Pim-1(h); 5 μg/ml", "result": "100% of control"}, {"measurement": "kinase inhibition", "setting": "Pim-1(h); 25 μg/ml", "result": "87% of control"}, {"measurement": "kinase inhibition", "setting": "Pim-1(h); 50 μg/ml", "result": "84% of control"}, {"measurement": "kinase inhibition", "setting": "Pim-1(h); 100 μg/ml", "result": "55% of control"}, {"measurement": "kinase inhibition", "setting": "EphB1(h); 1 μg/ml", "result": "127% of control"}, {"measurement": "kinase inhibition", "setting": "EphB1(h); 5 μg/ml", "result": "82% of control"}, {"measurement": "kinase inhibition", "setting": "EphB1(h); 25 μg/ml", "result": "144% of control"}, {"measurement": "kinase inhibition", "setting": "EphB1(h); 50 μg/ml", "result": "195% of control"}, {"measurement": "kinase inhibition", "setting": "EphB1(h); 100 μg/ml", "result": "105% of control"}, {"measurement": "kinase inhibition", "setting": "Abl(M351T)(h); 1 μg/ml", "result": "92% of control"}, {"measurement": "kinase inhibition", "setting": "Abl(M351T)(h); 5 μg/ml", "result": "95% of control"}, {"measurement": "kinase inhibition", "setting": "Abl(M351T)(h); 25 μg/ml", "result": "89% of control"}, {"measurement": "kinase inhibition", "setting": "Abl(M351T)(h); 50 μg/ml", "result": "75% of control"}, {"measurement": "kinase inhibition", "setting": "Abl(M351T)(h); 100 μg/ml", "result": "56% of control"}, {"measurement": "kinase inhibition", "setting": "cKit(h); 1 μg/ml", "result": "110% of control"}, {"measurement": "kinase inhibition", "setting": "cKit(h); 5 μg/ml", "result": "87% of control"}, {"measurement": "kinase inhibition", "setting": "cKit(h); 25 μg/ml", "result": "86% of control"}, {"measurement": "kinase inhibition", "setting": "cKit(h); 50 μg/ml", "result": "96% of control"}, {"measurement": "kinase inhibition", "setting": "cKit(h); 100 μg/ml", "result": "95% of control"}, {"measurement": "kinase inhibition", "setting": "PRAK(h); 1 μg/ml", "result": "66% of control"}, {"measurement": "kinase inhibition", "setting": "PRAK(h); 5 μg/ml", "result": "45% of control"}, {"measurement": "kinase inhibition", "setting": "PRAK(h); 25 μg/ml", "result": "19% of control"}, {"measurement": "kinase inhibition", "setting": "PRAK(h); 50 μg/ml", "result": "24% of control"}, {"measurement": "kinase inhibition", "setting": "PRAK(h); 100 μg/ml", "result": "19% of control"}, {"measurement": "kinase inhibition", "setting": "Ret(V804M)(h); 1 μg/ml", "result": "107% of control"}, {"measurement": "kinase inhibition", "setting": "Ret(V804M)(h); 5 μg/ml", "result": "104% of control"}, {"measurement": "kinase inhibition", "setting": "Ret(V804M)(h); 25 μg/ml", "result": "110% of control"}, {"measurement": "kinase inhibition", "setting": "Ret(V804M)(h); 50 μg/ml", "result": "94% of control"}, {"measurement": "kinase inhibition", "setting": "Ret(V804M)(h); 100 μg/ml", "result": "88% of control"}, {"measurement": "kinase inhibition", "setting": "TLK2(h); 1 μg/ml", "result": "98% of control"}, {"measurement": "kinase inhibition", "setting": "TLK2(h); 5 μg/ml", "result": "89% of control"}, {"measurement": "kinase inhibition", "setting": "TLK2(h); 25 μg/ml", "result": "106% of control"}, {"measurement": "kinase inhibition", "setting": "TLK2(h); 50 μg/ml", "result": "94% of control"}, {"measurement": "kinase inhibition", "setting": "TLK2(h); 100 μg/ml", "result": "98% of control"}, {"measurement": "kinase inhibition", "setting": "MAPKAP-K3(h); 1 μg/ml", "result": "101% of control"}, {"measurement": "kinase inhibition", "setting": "MAPKAP-K3(h); 5 μg/ml", "result": "100% of control"}, {"measurement": "kinase inhibition", "setting": "MAPKAP-K3(h); 25 μg/ml", "result": "109% of control"}, {"measurement": "kinase inhibition", "setting": "MAPKAP-K3(h); 50 μg/ml", "result": "104% of control"}, {"measurement": "kinase inhibition", "setting": "MAPKAP-K3(h); 100 μg/ml", "result": "101% of control"}]}
